Test [1] relates to P. aeruginosa K2415 (mexXY-oprM overexpressed). The test can be described thus: MIC / potentiation assay, strain K2415. The class given is cell-based, Pseudomonas aeruginosa. Conditions: Pseudomonas aeruginosa, read-out: MICs K2415 (↑mexXY-oprM). From the text: (§1) P. aeruginosa ATCC 27853 was obtained from the American Type Culture Collection (ATCC; Manassas, VA, USA). P. aeruginosa multidrug-resistant isolates were obtained from the CDC and FDA Antibiotic Resistance Isolate Bank (Atlanta, GA, USA). P. aeruginosa DA7232 (gyrA-T83I, parC-S80L) was a kind gift from Prof. Dan I. Andersson, Uppsala University, Uppsala, Sweden, and has been characterized elsewhere. P. aeruginosa strains K767 (WT), K1455 (mexAB-oprM overexpressed), K2415 (mexXY-oprM overexpressed), and K3698 (oprM∆) were obtained from Prof. Keith Poole, Queen’s University, Kingston, Ontario, Canada and have been characterized elsewhere. Bacterial cells were grown in cation-adjusted Mueller Hinton (CAMH) media, brain heart infusion broth (BHI), or tryptic soy agar (TSA) plates were all obtained from Becton, Dickinson, and Company (BD; Franklin Lakes, NJ, USA). Aztreonam, ceftazidime, moxifloxacin, levofloxacin, minocycline, tigecycline, chloramphenicol, nitrocefin, and imipenem were purchased from TOKU-E (Bellingham, WA, USA). Azithromycin was purchased from Tokyo Chemical Industry (Portland, OR, USA). Cotrimoxazole was purchased from Toronto Research Chemicals (Toronto, ON, Canada). Doxycycline and polymyxin B were purchased from Sigma-Aldrich (St. Louis, MO, USA). Ethidium bromide (EtBr) and glucose were purchased from VWR (Radnor, PA, USA). MC-04,124 and TXA01182 were synthesized at TAXIS Pharmaceuticals. Carbonyl cyanide 3-chlorophenylhydrazone (CCCP) was purchased from Enzo Life Sciences (Farmingdale, NY, USA). DiOC2 (3) and propidium iodide were obtained from Thermo Fisher Scientific (Waltham, MA, USA).
(§2) MIC assays were performed as described previously.

Test [2] concerns P. aeruginosa K3698 (∆oprM). The test can be described thus: MIC / potentiation assay, strain K3698. Conditions: Pseudomonas aeruginosa, read-out: MICs K3698 (∆oprM). The test is classed as cell-based, Pseudomonas aeruginosa.
From the text: as §1, with “Aztreonam, ceftazidime, moxifloxacin, levofloxacin, minocycline, tigecycline, chloramphenicol, nitrocefin, and imipenem were purchased from TOKU-E (Bellingham, WA, USA).” left out, “Cotrimoxazole was purchased from Toronto Research Chemicals (Toronto, ON, Canada). Doxycycline and polymyxin B were purchased from Sigma-Aldrich (St. Louis, MO, USA).” left out
as §2

The next test has as its target hERG channel (Homo sapiens, UniProt Q12809). The test can be described thus: hERG patch clamp assay (Q-Patch, CHO cell line). The class given is cell-based. As for the experimental part: The metabolic stability of TXA09155 was determined in human, mouse, and rat liver microsomes by Eurofins (St. Charles, MO, USA) using the substrate depletion method (in vitro half-life (t1/2) method). Quantification was performed by LC/MS/MS. In this assay, depletion of the parent compound is measured over time to determine the compound’s in vitro t1/2 and hepatic extraction ratios (ER). This is used to predict metabolic clearance. […] This assay utilizes electrophysiology measurements on the electric current passing through the hERG channel heterologously expressed in a stable CHO cell line. Channels are open by a hERG-specific voltage protocol, and the compound effects are directly characterized by their block of the hERG current. The assay is performed on an automated platform, Q-Patch.
In general terms: hERG is a cardiac potassium channel; its block is linked to QT prolongation.

The text below walks through data of PMC9220351, “Evaluation of a Conformationally Constrained Indole Carboxamide as a Potential Efflux Pump Inhibitor in Pseudomonas aeruginosa” (Antibiotics, 2022).

Broadly, the IC50 is the point on the concentration scale where inhibition reaches its midpoint.

Sequence of hERG channel (Q12809 whole entry): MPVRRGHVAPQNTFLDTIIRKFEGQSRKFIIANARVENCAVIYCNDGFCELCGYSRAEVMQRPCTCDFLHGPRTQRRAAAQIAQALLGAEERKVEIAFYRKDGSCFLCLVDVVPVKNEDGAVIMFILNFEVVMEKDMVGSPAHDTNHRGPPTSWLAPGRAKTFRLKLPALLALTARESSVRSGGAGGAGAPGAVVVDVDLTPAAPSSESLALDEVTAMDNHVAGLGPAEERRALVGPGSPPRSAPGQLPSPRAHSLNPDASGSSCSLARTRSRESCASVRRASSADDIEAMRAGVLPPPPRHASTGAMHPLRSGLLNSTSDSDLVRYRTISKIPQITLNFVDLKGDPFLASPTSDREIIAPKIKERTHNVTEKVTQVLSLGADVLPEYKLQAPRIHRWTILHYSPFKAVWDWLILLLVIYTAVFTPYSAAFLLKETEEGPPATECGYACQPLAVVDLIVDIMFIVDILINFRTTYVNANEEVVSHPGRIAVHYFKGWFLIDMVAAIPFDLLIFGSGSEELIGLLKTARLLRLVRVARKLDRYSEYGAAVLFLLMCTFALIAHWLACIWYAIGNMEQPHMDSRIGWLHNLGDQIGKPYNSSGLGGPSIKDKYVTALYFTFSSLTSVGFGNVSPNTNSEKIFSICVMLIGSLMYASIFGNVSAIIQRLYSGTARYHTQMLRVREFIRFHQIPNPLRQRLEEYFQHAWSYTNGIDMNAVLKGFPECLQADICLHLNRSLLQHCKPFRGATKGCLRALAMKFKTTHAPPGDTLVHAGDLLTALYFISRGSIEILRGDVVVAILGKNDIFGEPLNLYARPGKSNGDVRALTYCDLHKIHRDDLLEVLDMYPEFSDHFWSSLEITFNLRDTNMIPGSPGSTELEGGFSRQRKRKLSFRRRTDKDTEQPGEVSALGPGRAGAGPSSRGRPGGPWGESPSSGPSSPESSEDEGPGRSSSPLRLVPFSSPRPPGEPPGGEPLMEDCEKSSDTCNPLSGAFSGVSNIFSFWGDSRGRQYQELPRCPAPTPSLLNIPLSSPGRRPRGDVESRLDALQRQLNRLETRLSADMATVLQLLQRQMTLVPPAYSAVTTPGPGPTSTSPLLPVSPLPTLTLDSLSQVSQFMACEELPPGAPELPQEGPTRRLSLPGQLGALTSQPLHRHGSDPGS

Turning to `C[C@H]1COc2c(N3CCN(C)CC3)c(F)cc3c(=O)c(C(=O)O)cn1c23` [Levofloxacin], the values for the MIC in test [1] and in test [2] were 4 µg/mL and 0.031 µg/mL, respectively. On to `Cl.NC[C@@H]1CN[C@H](CNC(=O)c2cc3ccc(-c4ccc(F)cc4)cc3[nH]2)C1` [TXA09155, N-(((2S,4R)-4-(aminomethyl)pyrrolidine-2-yl)methyl)-6-(4-fluorophenyl)-1H-indole-2-carboxamide hydrochloride salt], for which, on hERG channel, the IC50 was 16 µM.
